Assay results taken from patent US12297187B2, “Compound having cyclic structure” (Daiichi Sankyo Company, Limited, priority 2017, dated 2025).

System: IL-10
Experiment: Measurement of IL-10 increase rate (LPS-induced inflammation in mice, serum IL-10 by ELISA)
Assay type: in vivo
Conditions: Mus musculus, 2 h, oral 100 mg/kg in 0.5% methyl cellulose, LPS 0.4 mg/kg i.p. one hour later, serum taken one hour after LPS, % control ratio vs 0.5% methyl cellulose group, read-out: IL10 Increase Rate (%)
Description: A test substance was suspended in a 0.5% (w/v) methyl cellulose and orally administered to mice at a dose of 100 mg/kg. One hour later, a lipopolysaccharide (LPS, Sigma-Aldrich, L2630 (trade name)) (0.4 mg/kg) was intraperitoneally administered to induce inflammation. One hour after administration of LPS, blood was taken from the vena cava under anesthesia with isoflurane, placed in a tube containing a serum separating agent, allowed to stand still at room temperature for 20-30 minutes and centrifuged at 4° C. at 12,000 rpm for 5 minutes to obtain the serum. Thereafter, the amount of the IL-10 in the serum was measured by using Mouse IL-10 Quantikine ELISA Kit (R&D systems, M1000B (trade name)) or Mouse IL-10 Immunoassay kit (PerkinElmer, AL502 (trade name)) in accordance with the protocol of the kit. The serum was diluted 10 times with the dilution solution contained in the kit and put in use. IL-10 increase rate (% control ratio) of the compound was calculated in accordance with the following expression: IL-10 increase rate (% control ratio) (IL10 amount in compound administration group)×100/(IL-10 amount in 0.5% (w/v) methyl cellulose administration group)

SMILES | response vs control in vivo at 100 mg/kg
Cn1c(COc2cc(C(F)(F)F)ccn2)nnc1[C@H]1CC[C@H](c2cnn([C@H]3C[C@H](O)[C@@H](N4CCC4)C3)c2)CC1 (racemic) [Example 28, (1SR,2SR,4RS)-2-(Azetidin-1-yl)-4-(4-{trans-4-[4-methyl-5-({[4-(trifluoromethyl)pyridin-2-yl]oxy}methyl)-4H-1,2,4-triazol-3-yl]cyclohexyl}-1H-pyrazol-1-yl)cyclopentanol] | 113%
CN1CCC(c2cn(-c3ccc(-c4nnc(COc5cccc(C(F)(F)F)c5)n4C)cc3)nn2)CC1 [Example 1, 1-Methyl-4-{1-[4-(4-methyl-5-{[3-(trifluoromethyl)phenoxy]methyl}-4H-1,2,4-triazol-3-yl)phenyl]-1H-1,2,3-triazol-4-yl}piperidine] | 146%
CC(C)c1cccc(OCc2nnc(-c3ccc(-n4cc(C5CCN(C)CC5)nn4)cn3)n2C)c1 [Example 2, 5-[4-(1-Methylpiperidin-4-yl)-1H-1,2,3-triazol-1-yl]-2-(4-methyl-5-{[3-(propan-2-yl)phenoxy]methyl}-4H-1,2,4-triazol-3-yl)pyridine] | 220%
CC(C)c1cccc(OCc2nnc([C@H]3CC[C@H](n4cc(C5(F)CCN(C)CC5)nn4)CC3)n2C)c1 [Example 3, 4-Fluoro-1-methyl-4-{1-[trans-4-(4-methyl-5-{[3-(propan-2-yl)phenoxy]methyl}-4H-1,2,4-triazol-3-yl)cyclohexyl]-1H-1,2,3-triazol-4-yl}piperidine] | 179%
CC(C)c1cccc(O[C@H](C)c2nnc([C@H]3CC[C@H](n4cc(C5(F)CCN(C)CC5)nn4)CC3)n2C)c1 [Example 4, 4-Fluoro-1-methyl-4-{1-[trans-4-(4-methyl-5-{(1R)-1-[3-(propan-2-yl)phenoxy]ethyl}-4H-1,2,4-triazol-3-yl)cyclohexyl]-1H-1,2,3-triazol-4-yl}piperidine] | 131%
CN1CCC(F)(c2cn([C@H]3CC[C@H](c4nnc(COc5ccc(Cl)c(C(F)(F)F)c5)n4C)CC3)nn2)CC1 [Example 5, 4-{1-[trans-4-(5-{[4-Chloro-3-(trifluoromethyl)phenoxy]methyl}-4-methyl-4H-1,2,4-triazol-3-yl)cyclohexyl]-1H-1,2,3-triazol-4-yl}-4-fluoro-1-methylpiperidine] | 206%
CC(C)c1cccc(OCc2nnc([C@H]3CC[C@H](n4cc(-c5ccc([C@@H](C)N6CCC6)cc5)nn4)CC3)n2C)c1 [Example 6, 4-{4-[(1R)-1-(Azetidin-1-yl)ethyl]phenyl}-1-[trans-4-(4-methyl-5-{[3-(propan-2-yl)phenoxy]methyl}-4H-1,2,4-triazol-3-yl)cyclohexyl]-1H-1,2,3-triazole] | 243%
CC(C)c1cccc(O[C@@H](C)c2nnc(C34CCC(n5cc(-c6ccc([C@@H](C)N7CCC7)cc6)nn5)(CC3)CC4)n2C)c1 [Example 7, 4-{4-[(1R)-1-(Azetidin-1-yl)ethyl]phenyl}-1-[4-(4-methyl-5-{(1S)-1-[3-(propan-2-yl)phenoxy]ethyl}-4H-1,2,4-triazol-3-yl)bicyclo[2.2.2]oct-1-yl]-1H-1,2,3-triazole] | 113%
CC(C)c1cccc(O[C@H](C)c2nnc([C@H]3CC[C@H](n4cc([C@@H]5CC[C@@H](N(C)C)CO5)nn4)CC3)n2C)c1 [Example 8, (3R,6S)—N,N-Dimethyl-6-{1-[trans-4-(4-methyl-5-{(1R)-1-[3-(propan-2-yl)phenoxy]ethyl}-4H-1,2,4-triazol-3-yl)cyclohexyl]-1H-1,2,3-triazol-4-yl}tetrahydro-2H-pyran-3-amine] | 197%
CN(C)C12CCC(c3cn([C@H]4CC[C@H](c5nnc(COc6cccc(C(F)(F)F)c6)n5C)CC4)nn3)(CC1)OC2 [Example 9, N,N-Dimethyl-1-{1-[trans-4-(4-methyl-5-{[3-(trifluoromethyl)phenoxy]methyl}-4H-1,2,4-triazol-3-yl)cyclohexyl]-1H-1,2,3-triazol-4-yl}-2-oxabicyclo[2.2.2]octan-4-amine] | 182%
Cn1c(COc2cccc(C(F)(F)F)c2)nnc1[C@H]1CC[C@H](n2cc(C34CCC(CN5CCC5)(CC3)CC4)nn2)CC1 [Example 10, 4-[4-(Azetidin-1-ylmethyl)bicyclo[2.2.2]oct-1-yl]-1-[trans-4-(4-methyl-5-{[3-(trifluoromethyl)phenoxy]methyl}-4H-1,2,4-triazol-3-yl)cyclohexyl]-1H-1,2,3-triazole] | 390%
CN(C)C12CCC(c3cn([C@H]4CC[C@H](c5nnc(COc6cccc(C(F)(F)F)c6)n5C)CC4)nn3)(CC1)CC2 [Example 11, N,N-Dimethyl-4-{1-[trans-4-(4-methyl-5-{[3-(trifluoromethyl)phenoxy]methyl}-4H-1,2,4-triazol-3-yl)cyclohexyl]-1H-1,2,3-triazol-4-yl}bicyclo[2.2.2]octan-1-amine] | 180%
CN(C)C12CC(c3cn([C@H]4CC[C@H](c5nnc(COc6cccc(C(F)(F)F)c6)n5C)CC4)nn3)(C1)C2 [Example 12, N,N-Dimethyl-3-{1-[trans-4-(4-methyl-5-{[3-(trifluoromethyl)phenoxy]methyl}-4H-1,2,4-triazol-3-yl)cyclohexyl]-1H-1,2,3-triazol-4-yl}bicyclo[1.1.1]pentan-1-amine] | 177%
CC(C)c1cccc(OCc2nnc([C@@H]3CC[C@@H](n4cc(C5(F)CCN(C)CC5)nn4)CO3)n2C)c1 [Example 13, 4-Fluoro-1-methyl-4-{1-[(3R,6S)-6-(4-methyl-5-{[3-(propan-2-yl)phenoxy]methyl}-4H-1,2,4-triazol-3-yl)tetrahydro-2H-pyran-3-yl]-1H-1,2,3-triazol-4-yl}piperidine] | 156%
CC(C)c1cccc(CC2OCCn3c2nnc3[C@H]2CC[C@H](n3cc(C4(F)CCN(C)CC4)nn3)CC2)c1 (stereo partly drawn) [Example 14, 3-{trans-4-[4-(4-Fluoro-1-methylpiperidin-4-yl)-1H-1,2,3-triazol-1-yl]cyclohexyl}-8-[3-(propan-2-yl)benzyl]-5,6-dihydro-8H-[1,2,4]triazolo[3,4-c][1,4]oxazine] | 216%
CN1CCC(F)(c2cn([C@H]3CC[C@H](c4nnc5n4CCCC5Oc4cccc(C(F)(F)F)c4)CC3)nn2)CC1 (stereo partly drawn) [Example 15, 3-{trans-4-[4-(4-Fluoro-1-methylpiperidin-4-yl)-1H-1,2,3-triazol-1-yl]cyclohexyl}-8-[3-(trifluoromethyl)phenoxy]-5,6,7,8-tetrahydro[1,2,4]triazolo[4,3-a]pyridine] | 227%
CN1CCC(c2cnn(-c3ccc(-c4nnc(COc5cccc(C(F)(F)F)c5)n4C)cc3)c2)CC1 [Example 16, 1-Methyl-4-{1-[4-(4-methyl-5-{[3-(trifluoromethyl)phenoxy]methyl}-4H-1,2,4-triazol-3-yl)phenyl]-1H-pyrazol-4-yl}piperidine] | 170%
Cn1c(COc2cccc(C(F)(F)F)c2)nnc1[C@H]1CC[C@H](n2cc([C@H]3CC[C@H](N4CCC4)CC3)cn2)CC1 [Example 17, 3-(trans-4-{4-[trans-4-(Azetidin-1-yl)cyclohexyl]-1H-pyrazol-1-yl}cyclohexyl)-4-methyl-5-{[3-(trifluoromethyl)phenoxy]methyl}-4H-1,2,4-triazole] | 334%
CN1CCC(c2cn(-c3ccc(-c4nnc(COc5cccc(C(F)(F)F)c5)n4C)cc3)cn2)CC1 [Example 18, 1-Methyl-4-{1-[4-(4-methyl-5-{[3-(trifluoromethyl)phenoxy]methyl}-4H-1,2,4-triazol-3-yl)phenyl]-1H-imidazol-4-yl}piperidine] | 157%
Cn1c(COc2cccc(C(F)(F)F)c2)nnc1[C@H]1CC[C@H](c2cn([C@@H]3CC[C@@H](CN4CCC4)OC3)nn2)CC1 [Example 19, 1,5-Anhydro-6-azetidin-1-yl-2,3,4,6-tetradeoxy-2-{4-[trans-4-(4-methyl-5-{[3-(trifluoromethyl)phenoxy]methyl}-4H-1,2,4-triazol-3-yl)cyclohexyl]-1H-1,2,3-triazol-1-yl}-D-erythro-hexitol] | 227%
Cn1c(COc2cc(C(F)(F)F)ccn2)nnc1[C@H]1CC[C@H](c2cn([C@H]3CC[C@H](N4CC(CF)C4)CC3)nn2)CC1 [Example 20, 2-({5-[trans-4-(1-{trans-4-[3-(Fluoromethyl)azetidin-1-yl]cyclohexyl}-1H-1,2,3-triazol-4-yl)cyclohexyl]-4-methyl-4H-1,2,4-triazol-3-yl}methoxy)-4-(trifluoromethyl)pyridine] | 176%
Cn1c(COc2cccc(C(F)(F)F)c2)nnc1[C@H]1CC[C@H](c2cnn([C@H]3CC[C@H](N4CCC4)CC3)c2)CC1 [Example 21, 3-(trans-4-{1-[trans-4-(Azetidin-1-yl)cyclohexyl]-1H-pyrazol-4-yl}cyclohexyl)-4-methyl-5-{[3-(trifluoromethyl)phenoxy]methyl}-4H-1,2,4-triazole] | 312%
Cn1c(COc2cccc(C(F)(F)F)c2)nnc1[C@H]1CC[C@H](c2cnn([C@@H]3CC[C@@H](CN4CCC4)OC3)c2)CC1 [Example 22, 1,5-Anhydro-6-azetidin-1-yl-2,3,4,6-tetradeoxy-2-{4-[trans-4-(4-methyl-5-{[3-(trifluoromethyl)phenoxy]methyl}-4H-1,2,4-triazol-3-yl)cyclohexyl]-1H-pyrazol-1-yl}-D-erythro-hexitol] | 113%
